Results as given in ChEMBL document CHEMBL1944562, “Design, synthesis of some new (2-aminothiazol-4-yl)methylester derivatives as possible antimicrobial and antitubercular agents” (2012).
In brackets after ≈: the same amount, converted by molar mass.

What follows are compounds tested on Mycobacterium tuberculosis (assay: Antitubercular activity against Multidrug-resistant Mycobacterium tuberculosis after 7 days by resazurin assay). Details: 168 h.
Format: functional

SMILES	MIC
Nc1nc(COC(=O)c2c(F)cccc2Cl)cs1	6.25 µg/mL (≈ 21.8 µM)
Nc1nc(COC(=O)c2ccc3ccccc3c2)cs1	> 50 µg/mL
Nc1nc(COC(=O)C2(c3ccc(Cl)cc3)CC2)cs1	> 50 µg/mL
Nc1nc(COC(=O)Cc2ccccc2OC(F)(F)F)cs1	> 50 µg/mL
Nc1nc(COC(=O)c2cccs2)cs1	> 50 µg/mL
Nc1nc(COC(=O)Cc2cccc(C(F)(F)F)c2)cs1	6.25 µg/mL (≈ 19.8 µM)
N#CCCc1cccc(C(=O)OCc2csc(N)n2)c1	6.25 µg/mL (≈ 21.8 µM)
Nc1nc(COC(=O)c2ccc(Br)cc2)cs1	2.5 µg/mL (≈ 7.98 µM)
Nc1nc(COC(=O)c2cccc([N+](=O)[O-])c2Cl)cs1	6.25 µg/mL (≈ 19.9 µM)
N#Cc1cccc(C(=O)OCc2csc(N)n2)n1	> 50 µg/mL
NNC(=O)c1ccncc1 [ISONIAZID]	12.5 µg/mL (≈ 91.1 µM)
Nc1nc(COC(=O)c2cc(F)cc(C(F)(F)F)c2)cs1	> 50 µg/mL
Nc1nc(COC(=O)c2ccc([N+](=O)[O-])cc2)cs1	1.25 µg/mL (≈ 4.48 µM)
CO[C@H]1/C=C/O[C@@]2(C)Oc3c(C)c(O)c4c(O)c(c(/C=N/N5CCN(C)CC5)c(O)c4c3C2=O)NC(=O)/C(C)=C\C=C\[C@H](C)[C@H](O)[C@@H](C)[C@@H](O)[C@@H](C)[C@H](OC(C)=O)[C@@H]1C [RIFAMPIN]	25 µg/mL (≈ 30.4 µM)
Nc1nc(COC(=O)c2c(Cl)cc(Cl)cc2Cl)cs1	> 50 µg/mL
N#Cc1ccccc1C(=O)OCc1csc(N)n1	> 50 µg/mL
Nc1nc(COC(=O)c2c(F)cc(F)cc2F)cs1	25 µg/mL (≈ 86.7 µM)
Nc1nc(COC(=O)c2ccccc2[N+](=O)[O-])cs1	12.5 µg/mL (≈ 44.8 µM)
